Consider 25 compounds from patent publication US4820834A, “Benzodiazepine analogs” (priority 1987, dated 1989).

In one assay the target is T1, CCK receptor (pancreas) (Rattus norvegicus, UniProt P30551).
T1 construct: The whole pancreas was dissected free of fat tissue and was homogenized; from tissue; host or cells: rat pancreas membranes (Sprague-Dawley)
T1 sequence (P30551 1-444): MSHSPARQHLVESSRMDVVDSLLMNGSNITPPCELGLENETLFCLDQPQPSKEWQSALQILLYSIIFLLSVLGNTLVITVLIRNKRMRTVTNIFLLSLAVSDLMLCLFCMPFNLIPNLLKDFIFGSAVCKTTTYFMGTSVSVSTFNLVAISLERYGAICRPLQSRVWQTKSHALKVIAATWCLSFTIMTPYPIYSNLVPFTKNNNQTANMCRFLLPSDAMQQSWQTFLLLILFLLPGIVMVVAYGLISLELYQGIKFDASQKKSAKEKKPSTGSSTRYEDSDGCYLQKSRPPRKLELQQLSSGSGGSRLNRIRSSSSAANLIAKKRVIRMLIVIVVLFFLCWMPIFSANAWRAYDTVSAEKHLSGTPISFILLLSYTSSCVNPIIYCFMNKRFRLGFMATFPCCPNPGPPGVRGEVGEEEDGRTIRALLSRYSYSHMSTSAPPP
Put plainly: CCK Receptor Binding (Pancreas): inhibition of ^125 I-CCK-33 binding. On the set-up: species or system Male Sprague-Dawley rats. Particulars: rat pancreas membranes, ^125 I-CCK-33, 37° C., 30 minutes. The procedure:
1. CCK Receptor Binding (Pancreas)
CCK-33 was radiolabeled with ^125 I-Bolton Hunter reagent (2000 Ci/mmole) as described by Sankara et al. (J. Biol. Chem. 254: 9349-9351, 1979). Receptor binding was performed according to Innis and Snyder (Proc. Natl. Acad. Sci. 77: 6917-6921, 1980) with the minor modification of adding the additional protease inhibitors, phenylmethane sulfonyl fluoride and o-phenanthroline.
Male Sprague-Dawley rats (200-350 g) were sacrificed by decapitation. The whole pancreas was dissected free of fat tissue and was homogenized in 20 volumes of ice-cold 50 mM, Tris HCl (pH 7.7 at 25° C.) with a Brinkmann Polytron PT 10. The homogenates were centrifuged at 48,000 g for 10 min. Pellets were resuspended in Tris Buffer, centrifuged as above and resuspended in 200 volumes of binding assay buffer (50 mM Tris HCl, pH 7.7 at 25° C., 5 mM dithiothrietol, 0.1 mM bacitracin, 1.2 mM phenylmethane sulfonyl fluoride and 0.5 mM o-phenanthroline). […] All assays were run in duplicate or triplicate. The reaction mixtures were incubated at 37° C. for 30 minutes and centrifuged in a Beckman Microfuge (4 minutes) immediately after adding 1 ml of ice-cold incubation buffer. The supernatant was aspirated and discarded, pellets were counted with a Beckman gamma 5000. For Scatchard analysis (Ann. N.Y. Acad. Sci. 51: 660, 1949), ^125 I-CCK-33 was progressively diluted with increasing concentrations of CCK-33.

For assay [1], the target named is T2, CCK receptor (brain, cerebral cortex) (Cavia porcellus, UniProt H0VZC5).
T2 construct: Cerebral cortex was dissected and used as a receptor source; from tissue; host or cells: guinea pig cerebral cortex membranes (male Hartley)
T2 sequence (H0VZC5 1-426): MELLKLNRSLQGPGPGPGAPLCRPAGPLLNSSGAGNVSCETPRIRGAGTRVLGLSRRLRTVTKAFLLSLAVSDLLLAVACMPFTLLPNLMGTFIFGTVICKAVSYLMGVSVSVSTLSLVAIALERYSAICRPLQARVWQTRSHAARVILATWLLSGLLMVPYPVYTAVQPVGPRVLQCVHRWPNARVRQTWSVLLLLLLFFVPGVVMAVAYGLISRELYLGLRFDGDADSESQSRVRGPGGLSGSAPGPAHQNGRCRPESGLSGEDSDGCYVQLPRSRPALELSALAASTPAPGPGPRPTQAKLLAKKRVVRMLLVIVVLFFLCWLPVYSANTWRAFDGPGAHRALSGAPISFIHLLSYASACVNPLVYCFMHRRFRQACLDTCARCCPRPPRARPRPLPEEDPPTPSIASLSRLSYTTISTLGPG
In words: biochemical. Type of assay: binding, Male Hartley guinea pigs. Particulars: guinea pig cerebral cortex, ^125 I-CCK-33, 25° C., 2 hours. The method, boiled down:
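Guinea pig cerebral cortex homogenate as receptor source, with radiolabeled CCK-33 in HEPES buffer containing MgCl2, bacitracin, EGTA and 0.4% BSA. Incubation 2 h at 25°C; bound ligand pelleted by centrifugation and gamma-counted.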

Setting [2] is: read-out: IC50 ^125 I-CCK Pancreas.
Where [3] appears, read: read-out: IC50 ^125 I-CCK Brain.

Each structure is given as a SMILES string. pIC50: −log10 of the molar value. Read-outs that look alike come from different tables or passages of the source.

One may read the pIC50 as the IC50 on a negative log10 scale, so that one unit is a factor of ten.

For the compound `O=C1Nc2ccc(Cl)cc2C(c2ccccc2)N[C@H]1Cc1c[nH]c2ccccc12` (stereo partly drawn) [Example 26, 7-Chloro-1,3,4,5-tetrahydro-3(S)-(3'-indolyl)methyl-5-phenyl-2H-1,4-benzodiazepin-2-one], the pIC50 is 4.12 at CCK receptor (pancreas) (setting [2]) and under 4.00 in assay [1] (setting [3]).
As for `CC(=O)N1C(c2ccccc2F)c2ccccc2N(C)C(=O)[C@H]1Cc1cn(C)c2ccccc12` (stereo partly drawn) [Example 27b, 4-acetyl-5-(2-fluorophenyl)-3(R)-[3'-(1'-methylindolyl)-methyl]-1-methyl-1,3,4,5-tetrahydro-2H-1,4-benzodiazepin-2-one], the values for the pIC50 (at CCK receptor (pancreas) (setting [2]); in assay [1] (setting [3])) were 4.00 and under 4.00, respectively.
Consider `O=C1Nc2ccc(Cl)cc2C(c2ccccc2)=NC1Cc1cccc2ccccc12` (racemic) [Example 17, 7-Chloro-1,3-dihydro-3(RS)-(1-naphthyl)methyl-5-phenyl-2H-1,4-benzodiazepin-2-one], for which the pIC50 was 4.64 at CCK receptor (pancreas) (IC50 ^125 I-CCK Pancreas) and 4.00 in assay [1] (IC50 ^125 I-CCK Brain).
The corresponding values for `O=C1Nc2ccc(Cl)cc2C(c2ccccc2)=N[C@@H]1Cc1ccc(OCc2ccccc2)cc1` [Example 16, 7-Chloro-1,3-dihydro-3(R)-(4-benzyloxybenzyl)-5-phenyl-2H-1,4-benzodiazepin-2-one] are under 4.00 and under 4.00.
In the case of `O=C1Nc2ccc(Cl)cc2C(c2ccccc2)=N[C@@H]1Cc1c[nH]c2ccccc12` [Example 5, 7-Chloro-1,3-dihydro-3(R)-(3'-indolyl)methyl-5-phenyl-2H-1,4-benzodiazepin-2-one], the figures for the pIC50 (on CCK receptor (pancreas) (IC50 ^125 I-CCK Pancreas); in assay [1] (IC50 ^125 I-CCK Brain)) were 5.47 and 4.00, respectively.
For `CN1C(=O)[C@@H](Cc2c[nH]c3ccccc23)N=C(c2ccccc2F)c2ccccc21` [Example 4b, 1,3-dihydro-5-(2-fluorophenyl)-3(R)-(3'-indolyl) methyl-1-methyl-2H-1,4-benzodiazepin-2-one] the same measures were 6.57 and 4.74.
In the case of `O=C1Nc2ccccc2C(c2ccccc2F)=N[C@H]1Cc1c[nH]c2ccccc12` [Example 32, 1,3-Dihydro-5-(2-fluorophenyl)-3(S)-(3'-indolyl) methyl-2H-1,4-benzodiazepin-2-one], on CCK receptor (pancreas) (IC50 ^125 I-CCK Pancreas), the pIC50 is 4.97.
Still for that read-out and setting: the value for `O=C1[C@@H](Cc2c[nH]c3ccccc23)N=C(c2ccccc2F)c2ccccc2N1CC1CC1` [Example 37, 1-Cyclopropylmethyl-1,3-dihydro-5-(2-fluorophenyl)-3(R)-(3'-indolyl)methyl-2H-1,4-benzodiazepin-2-one] was 5.66; that for `CN1C(=O)/C(=C\c2ccsc2)N=C(c2ccccc2)c2ccccc21` [95 E] was 4.60.
Still for that read-out and setting: the value for `O=C(O)c1ccccc1C1=N[C@H](Cc2c[nH]c3ccccc23)C(=O)Nc2ccccc21` [Example 58, 5-o-Carboxyphenyl-1,3-dihydro-3(R)-(3+-indolyl)methyl-2H-1,4-benzodiazepin-2-one] was 4.74; that for `O=C1Nc2ccccc2C(c2ccccc2)=NC1CC1CNc2ccccc21` (stereo not shown) [Example 199, 3-((2,3-Dihydro-1H-indol-3-yl)methyl)-1,3-dihydro-5-phenyl-2H-1,4-benzodiazepin-2-one] was 5.49.
For the compound `O=C1Nc2ccc(Cl)cc2C(c2ccccc2Cl)=N[C@@H]1Cc1c[nH]c2ccccc12` [Example 28, 7-Chloro-5-(2-chlorophenyl)-1,3-dihydro-3(R)-(3'-indolyl)methyl-2H-1,4-benzodiazepin-2-one], the pIC50 was 5.30 at CCK receptor (pancreas) (IC50 ^125 I-CCK Pancreas) and under 4.00 in assay [1] (IC50 ^125 I-CCK Brain).
The corresponding values for `CN1CC(CC2N=C(c3ccccc3)c3ccccc3N(C)C2=O)c2ccccc21` (stereo not shown) [Example 211, 3-((2,3-Dihydro-1-methyl-1H-indol-3-yl)methyl)-1,3-dihydro-1-methyl-5-phenyl-2H-1,4-benzodiazepin-2-one] are 4.89 and 4.03.
On to `NC(=O)CN1C(=O)[C@@H](Cc2c[nH]c3ccccc23)N=C(c2ccccc2F)c2ccccc21` [Example 123, 1-Carboxamidomethyl-1,3-dihydro-3R-(3-indolylmethyl)-5-(2-fluorophenyl)-2H-1,4-benzodiazepin-2-one], for which, at CCK receptor (pancreas) (IC50 ^125 I-CCK Pancreas), the pIC50 is 5.68.
Take `O=C1Nc2ccccc2C(c2ccccc2F)=NC1Cc1c[nH]c2cc(F)ccc12` (racemic) [Example 60, 1,3-Dihydro-3(RS)-[3'-(6'-fluoroindolyl)methyl]-5-o-fluorophenyl-2H-1,4-benzodiazepin-2-one]: the negative logarithm of the IC50 (pIC50) on CCK receptor (pancreas) (IC50 ^125 I-CCK Pancreas) was 5.89; in assay [1] (IC50 ^125 I-CCK Brain) it was 4.00.
The corresponding values for `S=C1Nc2ccc(Cl)cc2C(c2ccccc2)=N[C@@H]1Cc1c[nH]c2ccccc12` [Example 34, 7-Chloro-1,3-dihydro-3(R)-(3'-indolyl)methyl-5-phenyl-2H-1,4-benzodiazepin-2-thione] are 5.35 and under 4.00.
Consider `CN1C(=O)/C(=C/c2ccsc2)N=C(c2ccccc2)c2ccccc21` [95 Z], for which the negative-log IC50 (pIC50) at CCK receptor (pancreas) (IC50 ^125 I-CCK Pancreas) was 4.00.
The same measure, in the same setting: the value for `Fc1ccccc1C1=N[C@H](Cc2c[nH]c3ccccc23)CNc2ccccc21` [Example 12, 1,3-Dihydro-5-(2-fluorophenyl)-3(R)-(3'-indolyl)methyl-2H-1,4-benzodiazepin] was 5.40.
`CN1C(=O)[C@@H](Cc2cn(C)c3ccccc23)N(C(=O)c2ccc(Cl)cc2)C(c2ccccc2F)c2ccccc21` (stereo partly drawn) [Example 27a, 4-(p-Chlorobenzoyl)-5-(2-fluorophenyl)-3(R)-[3'-(1'-methylindolyl)-methyl]-1-methyl-1,3,4,5-tetrahydro-2H-1,4-benzodiazepin-2-one]: the negative logarithm of the IC50 (pIC50) (at CCK receptor (pancreas) (setting [2]); in assay [1] (setting [3])) was under 4.00 each time.
For the compound `O=C1Nc2ccc(Cl)cc2C(c2ccccc2)=N[C@@H]1Cc1ccccc1` [Example 13, 7-Chloro-1,3-dihydro-3(R)-benzyl-5-phenyl-2H-1,4-benzodiazepin-2-one], the negative-log IC50 (pIC50) at CCK receptor (pancreas) (IC50 ^125 I-CCK Pancreas) was 4.10.
For `O=C1Nc2ccccc2C(c2ccccc2)=N[C@@H]1Cc1c[nH]c2ccccc12` [Example 6, 1,3-Dihydro-3(R)-(3'-indolyl)methyl-5-phenyl-2H-1,4-benzodiazepin-2-one], the pIC50 was 5.92 on CCK receptor (pancreas) (IC50 ^125 I-CCK Pancreas) and 4.30 in assay [1] (IC50 ^125 I-CCK Brain).
For `CC(C)CC(NC(=O)OC(C)(C)C)C(=O)N1CC(CC2N=C(c3ccccc3)c3ccccc3NC2=O)c2ccccc21` (stereo not shown) [Example 225, (1-((3-((2,3-Dihydro-2-oxo-5-phenyl-1H-1,4-benzodiazepin-3-yl)methyl)-2,3-dihydro-1H-indol-1-yl)carbonyl)-3-methylbutyl)-carbamic acid-1,1-dimethylethyl ester], at CCK receptor (pancreas) (IC50 ^125 I-CCK Pancreas), the pIC50 was 5.33.
In the case of `O=C1[C@@H](Cc2c[nH]c3ccccc23)N=C(c2ccccc2F)c2ccccc2N1CC(F)(F)F` [Example 40, 1,3-Dihydro-5-(2-fluorophenyl)-3(R)-(3'-indolyl)methyl-1-(2,2,2-trifluoroethyl)-2H-1,4-benzodiazepin-2-one], at CCK receptor (pancreas) (IC50 ^125 I-CCK Pancreas), the pIC50 is 5.44.
In turn, `O=C1Nc2ccccc2C(c2ccccc2F)=N[C@@H]1Cc1c[nH]c2ccccc12` [2 & 3] had a pIC50 at CCK receptor (pancreas) (IC50 ^125 I-CCK Pancreas) of 6.40.
Same read-out and setting: the value for `CN(C)CCN1C(=O)[C@@H](Cc2c[nH]c3ccccc23)N=C(c2ccccc2F)c2ccccc21` [Example 41, 1,3-Dihydro-1-(2-dimethylaminoethyl)-5-(2-fluorophenyl) 3(R)-(3'-indolyl)methyl-2H-1,4-benzodiazepin-2-one] was 4.00.
